Results as given in US20030161867A1, “Skin-permeable selective cyclooxygenase-2 inhibitor composition” (priority 2001, published 2003).
Where “and” joins values, the source holds several entries; their conditions need not be identical. Identical values can stand only once.

What was measured:
[1] = Skin permeation (skin flux) in Franz diffusion cell; format: in vitro ADME, human; settings: for Normalized skin flux: normalized to a standard run on each skin lot
Procedure: Suitable receptor fluids can be selected by one of skill in the art, but presently preferred receptor fluids are a 1% polysorbate 80 solution and a 6% polyethylene glycol (20) oleyl ether (oleth-20) solution. The receptor fluid is maintained at a suitable temperature, preferably a temperature approximating living human skin temperature. A receptor fluid temperature of 32° C. has been found suitable. The membrane is oriented so that its internal surface, i.e., the surface opposite the epidermal surface, is placed in contact with the receptor fluid. Air bubbles are removed from the receptor fluid, which is then allowed to equilibrate for 30 minutes with the membrane. A test sample of a composition is placed in contact with the epidermal surface of the membrane, and left in place for a desired period, for example 24 hours. […] The receptor compartment of the Franz diffusion cell was filled with the receptor fluid and the diffusion cell was maintained at 32° C. The membrane was mounted on the receptor compartment, covered and fastened with a clamp. Air bubbles were removed from the receptor fluid, which was allowed to equilibrate for 30 minutes. A test composition was brought into contact with the membrane. […] Each test was conducted in several replicates.

[2] = Distribution of drug in epidermis and dermis after Franz cell skin permeation test; format: in vitro ADME, human
Source text: As a way of measuring the skin permeation properties of selective COX-2 inhibitory drugs or prodrugs in dermally deliverable pharmaceutical compositions, a Franz diffusion cell was provided utilizing a human cadaver skin membrane and a 1% polysorbate 80 (Tween™ 80) solution as a receptor fluid. Frozen skin was thawed at room temperature and punched with a 20 mm puncher to provide a membrane. The receptor compartment of the Franz diffusion cell was filled with the receptor fluid and the diffusion cell was maintained at 32° C. The membrane was mounted on the receptor compartment, covered and fastened with a clamp. Air bubbles were removed from the receptor fluid, which was allowed to equilibrate for 30 minutes. A test composition was brought into contact with the membrane. The amount of drug which permeated through the membrane in a 24 hour period was determined by HPLC analysis of the receptor fluid. Each test was conducted in several replicates.
Distribution of drug in epidermis and dermis was also determined. Results are shown in Table 6, by comparison with the solution compositions of Examples 1 and 2.

[3] = Drug concentration of saturated solutions; format: physicochemical
Procedure: Saturated solutions of celecoxib were prepared in the following solvents: 70% aqueous ethanol (EtOH), ethanol, PEG-400 and propylene glycol (PG). The solutions were tested for skin permeation properties as described above, using 250 μl drops of each test solution.
Since different lots of skin were used to determine the skin flux of each compound, a standard was run on each skin lot and the data were normalized.
The solutions were tested for skin permeation properties as described above.

[4] = Skin permeation (skin flux) in Franz diffusion cell; format: in vitro ADME, human; settings: saturated aqueous solution, 50° C.
[5] = molecular target: COX-1 (Homo sapiens, UniProt P23219); settings: in vitro; cited from earlier work
Chain of COX-1 (P23219 24-599): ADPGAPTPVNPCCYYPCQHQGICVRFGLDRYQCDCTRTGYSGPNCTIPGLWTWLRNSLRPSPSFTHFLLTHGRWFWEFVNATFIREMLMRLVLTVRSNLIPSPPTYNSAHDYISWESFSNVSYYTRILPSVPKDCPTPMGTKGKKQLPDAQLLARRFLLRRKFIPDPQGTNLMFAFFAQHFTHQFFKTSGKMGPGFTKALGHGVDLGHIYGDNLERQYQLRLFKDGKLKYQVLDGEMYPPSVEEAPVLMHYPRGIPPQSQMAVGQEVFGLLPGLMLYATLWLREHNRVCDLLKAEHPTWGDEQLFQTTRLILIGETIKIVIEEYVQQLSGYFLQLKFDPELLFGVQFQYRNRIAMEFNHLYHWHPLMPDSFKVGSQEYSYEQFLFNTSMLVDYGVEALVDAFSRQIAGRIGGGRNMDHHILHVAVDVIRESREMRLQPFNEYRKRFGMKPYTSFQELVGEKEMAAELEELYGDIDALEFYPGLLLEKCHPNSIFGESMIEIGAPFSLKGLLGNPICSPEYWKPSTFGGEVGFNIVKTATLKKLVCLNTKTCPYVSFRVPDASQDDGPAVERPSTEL

[6] = molecular target: T1, COX-2 (Homo sapiens, UniProt P35354); settings: in vitro; cited from earlier work
T1 sequence (P35354 18-604): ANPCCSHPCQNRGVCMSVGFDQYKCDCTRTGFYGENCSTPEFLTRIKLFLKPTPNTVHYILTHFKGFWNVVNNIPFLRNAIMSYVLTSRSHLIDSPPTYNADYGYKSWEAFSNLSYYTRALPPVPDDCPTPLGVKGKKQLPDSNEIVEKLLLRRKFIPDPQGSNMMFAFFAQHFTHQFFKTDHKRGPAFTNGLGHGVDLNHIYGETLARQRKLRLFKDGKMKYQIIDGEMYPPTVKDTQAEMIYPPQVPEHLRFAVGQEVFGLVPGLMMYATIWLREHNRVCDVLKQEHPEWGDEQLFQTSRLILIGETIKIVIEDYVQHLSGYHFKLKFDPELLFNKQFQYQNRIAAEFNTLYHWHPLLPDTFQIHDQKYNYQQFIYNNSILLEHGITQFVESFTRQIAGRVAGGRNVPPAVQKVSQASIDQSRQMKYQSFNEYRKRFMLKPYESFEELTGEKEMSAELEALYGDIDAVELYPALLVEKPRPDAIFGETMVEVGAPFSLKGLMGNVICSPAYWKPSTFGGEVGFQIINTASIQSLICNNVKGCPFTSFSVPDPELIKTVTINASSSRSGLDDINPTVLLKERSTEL

[7] = 5% oleyl alcohol and 3% thymol in 70% aqueous ethanol, versus skin flux data in Table 2
[8] = Celecoxib + parecoxib Na composition: saturated celecoxib in 67% aqueous ethanol containing 5% parecoxib sodium
[9] = gel, 1% drug (10 mg/ml) in 70% aqueous ethanol with 3% Klucel, 50 mg applied, non-occlusive
[10] = saturated aqueous solution, 32° C.
[11] = saturated solution in 70% aqueous ethanol containing 5% oleyl alcohol and 3% thymol, 250 μl
[12] = saturated solution in 70% aqueous ethanol, 250 μl, occlusive, 24 hour period, 32° C.
[13] = saturated solution in 70% aqueous ethanol, skin donor 3
[14] = saturated solution in 70% aqueous ethanol, skin donor 4
[15] = saturated solution in 70% aqueous ethanol
[16] = saturated solution in PEG-400, 250 μl, 24 hour period
[17] = saturated solution in ethanol (EtOH), 250 μl, 24 hour period
[18] = saturated solution in propylene glycol (PG), 250 μl, 24 hour period
[19] = with 5% parecoxib sodium in 67% aqueous ethanol, versus Table 2 data in absence of parecoxib sodium
[20] = gel, 1% drug in 70% aqueous ethanol with 3% Klucel, 50 mg, non-occlusive
[21] = saturated solution in 70% aqueous ethanol, 250 μl, occlusive
[22] = Valdecoxib + parecoxib Na composition: saturated valdecoxib in 67% aqueous ethanol containing 5% parecoxib sodium

| SMILES | Enhancement factor [1, 7] | Skin flux [1, 8] [μg/cm^2 · day] | Skin flux [1, 9] [μg/cm^2 · day] | Skin flux [1, 10] [μg/cm^2 · day] | Skin flux [1, 11] | Skin flux [1, 12] | Skin flux [1, 13] [μg/cm^2 · day] | Skin flux [1, 14] [μg/cm^2 · day] | Normalized skin flux [1, 15] [μg/cm^2 · day] | Skin flux [1, 16] | Skin flux [1, 17] [μg/cm^2 · day] | Skin flux [1, 18] | Enhancement factor [1, 19] | Drug in dermis [2, 20] | Drug in epidermis [2, 20] [µg] | Drug in dermis [2, 21] [µg] | Drug in epidermis [2, 21] [µg] | Concentration ([3]; saturated aqueous solution) [µg/mL] | Concentration [3, 15] [µg/mL] | Skin flux [4] [μg/cm^2 · day] | further results |
| --- | --- | --- | --- | --- | --- | --- | --- | --- | --- | --- | --- | --- | --- | --- | --- | --- | --- | --- | --- | --- | --- |
| Cc1ccc(-c2cc(C(F)(F)F)nn2-c2ccc(S(N)(=O)=O)cc2)cc1 [celecoxib, 4-[5-(4-methylphenyl)-3-(trifluoromethyl)-1H-pyrazol-1-yl]benzenesulfonamide] | 1.4 | 183 ± 153 | 3.82 ± 3.36 | 4.27 ± 0.84 | 21.7 ± 4.6 μg/cm^2 · day | 15.7 μg/cm^2 · day and 15.7 ± 3.83 μg/cm^2 · day | 73.7 ± 11.8 | 31.9 ± 9.6 | 34.9 | No skin permeation | 5.62 ± 1.49 | No skin permeation | 11.5 | 1.22 ± 0.51 µg | 2.36 ± 1.06 | 2.50 ± 1.53 | 3.92 ± 0.79 | 0.5 | 15200 | 23.71 ± 4.42 | Celecoxib permeation ([1]; saturated celecoxib solution in 70% ethanol, amount in receptor fluid after 15 hours): 1.406 ± 0.086 μg/cm^2; Skin flux ([1]; saturated solution in 70% aqueous ethanol, 250 μl, occlusive, 24 hour period, 32° C., listed as Celecoxib): 15.7 ± 3.83 μg/cm^2 · day; Skin flux ([1]; saturated solution in 70% aqueous ethanol, skin donor 1): 15.7 ± 3.8 μg/cm^2 · day; Skin flux ([1]; saturated solution in 70% aqueous ethanol, skin donor 6): 50.4 ± 12.7 μg/cm^2 · day; Skin flux ([1]; saturated solution in PEG-400, 250 μl, 24 hour period, listed as Celecoxib): ud; Skin flux ([1]; saturated solution in propylene glycol (PG), 250 μl, 24 hour period, listed as Celecoxib): ud; Concentration ([3]; saturated in 67% aqueous ethanol containing 5% parecoxib sodium): 15900 µg/mL; Concentration ([3]; saturated solution in PEG-400): 297000 µg/mL; Concentration ([3]; saturated solution in ethanol (EtOH)): 91400 µg/mL; Concentration ([3]; saturated solution in propylene glycol (PG)): 33300 µg/mL |
| CCC(=O)NS(=O)(=O)c1ccc(-c2c(-c3ccccc3)noc2C)cc1 [parecoxib Na] | 4.8 |  |  |  | 1210 ± 58.0^ μg/cm^2 · day | 254 ± 164 μg/cm^2 · day |  |  | 120.0 |  |  |  |  |  |  |  |  |  | 386000 |  |  |
| CCC(=O)NS(=O)(=O)c1ccc(-c2c(-c3ccccc3)noc2C)cc1 [parecoxib, N-[[4-(5-methyl-3-phenylisoxazol-4-yl)phenyl]sulfonyl]propanamide] |  | 74.7 ± 14.7 |  | 8.62 ± 1.94 |  |  |  |  |  |  |  |  |  |  |  |  |  | 50.8 |  | 47.16 ± 3.70 | Skin flux [1, 22]: 64.1 ± 11.3 μg/cm^2 · day; inhibitory activity against COX-1 [5]: weak in vitro inhibitory activity; inhibitory activity against COX-2 [6]: weak in vitro inhibitory activity |
| Cc1onc(-c2ccccc2)c1-c1ccc(S(N)(=O)=O)cc1 [valdecoxib, 4-[5-methyl-3-phenylisoxazol-4-yl]benzenesulfonamide] | 25 |  | 11.3 ± 6.48 | 7.94 ± 0.89 | 323 ± 21 μg/cm^2 · day | 12.8 μg/cm^2 · day and 12.8 ± 4.96 μg/cm^2 · day | 91.9 ± 15.0 | 58.3 ± 11.0 | 53.4 | No skin permeation | 1.44 ± 0.54 | No skin permeation | 8.4 | ud | 1.81 ± 1.87 | 0.543 ± 0.525 | 9.27 ± 3.84 |  |  | 42.12 ± 7.82 | Skin flux [1, 22]: 108 ± 16.7 μg/cm^2 · day; Skin flux ([1]; saturated solution in 70% aqueous ethanol, 250 μl, occlusive, 24 hour period, 32° C., listed as Valdecoxib): 12.8 ± 4.96 μg/cm^2 · day; Skin flux ([1]; saturated solution in 70% aqueous ethanol, skin donor 2): 12.8 ± 5.0 μg/cm^2 · day; Skin flux ([1]; saturated solution in PEG-400, 250 μl, 24 hour period, listed as Valdecoxib): ud; Skin flux ([1]; saturated solution in propylene glycol (PG), 250 μl, 24 hour period, listed as Valdecoxib): ud; inhibitory activity against COX-1 [5]: weak inhibitor |
